We go through three compounds from ChEMBL document CHEMBL1145413, “Dehydroxychlorofusarielin B, an antibacterial polyoxygenated decalin derivative from the marine-derived fungus Aspergillus sp” (2007).

Holding throughout (format): functional
Assay [1] has as its system Staphylococcus aureus. As to the kind of experiment: Antibacterial activity against multidrug-resistant Staphylococcus aureus after 18 hrs by dilution method.
The subject of assay [2] is Staphylococcus aureus. Description: Antibacterial activity against methicillin-resistant Staphylococcus aureus after 18 hrs by dilution method.
Assay [3] concerns Staphylococcus aureus. Description: Antibacterial activity against Staphylococcus aureus after 18 hrs by dilution method.

Structures are written as SMILES. Values after ≈ are worked out from the molar mass of the structure shown.

On to `C/C=C(\C)[C@H]1[C@@H](/C=C/C=C(\C)[C@@H](O)[C@@H](C)CO)[C@@H]2C[C@@H]3O[C@]3(C)C[C@H]2[C@@H]2O[C@@]21C` [FUSARIELIN A], for which the MIC in the assay on Staphylococcus aureus [1] was 62.5 µg/mL (≈ 155 µM); against Staphylococcus aureus [2] it was 32.5 µg/mL (≈ 80.7 µM); in the assay with Staphylococcus aureus [3] it was 32.5 µg/mL (≈ 80.7 µM).
Regarding `C/C=C(\C)[C@H]1[C@@H](/C=C/C=C(\C)[C@@H](O)[C@@H](C)CO)[C@@H]2C[C@@H](O)[C@](C)(O)C[C@H]2[C@@H]2O[C@@]21C` [FUSARIELIN B], the MIC against Staphylococcus aureus [1], in the assay with Staphylococcus aureus [2] and in the assay with Staphylococcus aureus [3] was 62.5 µg/mL (≈ 149 µM) each time.
Turning to `C/C=C(\C)[C@H]1[C@@H](/C=C/C=C(\C)[C@@H](O)[C@@H](C)CO)[C@@H]2C[C@@H](Cl)[C@](C)(O)C[C@H]2[C@@H]2O[C@@]21C` [DEHYDROXYCHLOROFUSARIELIN B], the MIC in the assay on Staphylococcus aureus [1], against Staphylococcus aureus [2] and against Staphylococcus aureus [3] was 62.5 µg/mL (≈ 142 µM) in each case.
